Data on 4 compounds can be found in patent publication US20260226036A1, “THIOUREA ANTIO[…] NEURO[…]” (priority 2023, published 2026).

One data set relates to SW mice. Description: Cocaine-conditioned locomotion, expression test. The class given is in vivo, mouse. Conditions: Paired mice, cocaine 15 mg/kg 24 h earlier; 10 mg/kg prior to testing. How it is done: The goal of this pilot study was to determine if the novel small molecule was effective in preventing cocaine-conditioned motor activity of SW mice. […] Cocaine results in enhanced locomotor activity in mice. Mice that were previously injected with 15 mg/kg cocaine, either in their home cages (Unpaired) or in the novel test environment (Paired), were tested 24 h later.

Another data set has as its system mouse model of CPP. Description: Mouse model of CPP. The class given is in vivo.
Data set [1] in a line: Neuroprotection MTT assay in SHSY5Y cells. The format is cell-based, human. Conditions: insult agent alone, HT22 or SHSY5Y cells, not told apart, read-out: cell proliferation (viable cells, MTT); for viability: 24 h. The text has this: MTT assay was used for measuring viable cells at absorbance of 490 nm. […] (FIGS. 5C-5D).
For orientation: Tetrazolium dyes change colour on reduction, which living cells bring about.

The next data set concerns IL-1β cytokine. Description: IL-1β cytokine ELISA of SHSY-5Y supernatants. The format is cell-based, human. Conditions: cocaine 1.5 mM or METH 3.5 mM alone; 24 h. How it is done:
Supernatants were collected and the IL-1β cytokine concentration was assessed using ELISA kit and following manufacturer instruction (RayBiotech). […] N=3, p<0.05; p<0.01, One-way ANOVA, GraphPad Prism.

The test system of a further data set is methionine synthase (MS). Description: Intracellular methionine synthase ELISA of SH-SY5Y cell lysate. The format is cell-based, human. Conditions: cocaine 1.5 mM alone; 24 hours; FIG. 6B. The procedure: Cell lysates were collected and quantified with Pierce™ BCA Protein Assay. Level of intracellular methionine synthase (MS) were assessed using ELISA of the cell lysate.
On the technique in general: ELISA stands for enzyme-linked immunosorbent assay.

Another data set deals with catalase (CAT). Description: Catalase ELISA in SH-SY5Y cells. The class given is cell-based, human. Conditions: cocaine 1.5 mM alone; 24 hours. The procedure: Cell lysates were collected and quantified with Pierce™ BCA Protein Assay. Level of intracellular SOD, catalase, glutathione peroxidase and total antioxidant concentration were assessed using ELISA kits.

For `CNC(=S)NC` [DMTU, dimethyl thiourea], the “expression of increased (cocaine-conditioned) locomotor activity” value with SW mice is listed as “effective”. Also, the “bioactivity in the mouse model of CPP” value with mouse model of CPP (5 mg/kg) and in the data set on mouse model of CPP (10 mg/kg) was “potent bioactivity” each time.

As for `CC(C)(C)OO` [TBHP, t-butyl hydrogen peroxide], the viability at 24 h in data set [1] was roughly 50%.

Consider `CN[C@@H](C)Cc1ccccc1` [METH, methamphetamine], for which the viability in data set [1] was roughly 50%. Besides, in the data set on IL-1β cytokine, the IL-1β result is “trend in increase”.

`COC(=O)[C@H]1[C@@H](OC(=O)c2ccccc2)C[C@@H]2CC[C@H]1N2C` [cocaine]: the viability in data set [1] is roughly 50%. In addition, the “effect on MS” value in the data set with methionine synthase (MS) is given as “no significant effect”. Further, in the data set with catalase (CAT), the CAT activity entry is on record as “no significant effect”.
